Experimental findings from patent US20140172118A1, “Bioactive Compositions, Bioactive Eluting Devices and Methods of Use Thereof” (Cook Medical Technologies LLC, priority 2012, published 2014) are described below.

The data set can be described thus: Ex-vivo delivery of doxazosin mesylate from coated polyurethane tubing to ureter tissue. Type of data set: in vitro ADME. The conditions noted are these: 7 cm coated 6 Fr. polyurethane tubing in 9 cm porcine ureter, approximately 18 hours at 37° C., PBS pH=7.4; HPLC; compared with coating with no triacetin or DMSO; FIG. 6. The method, then: However, the increase in the amount bioactive delivered through a vessel wall may be characterized in an ex vivo assay in which the composition or implantable device is placed in a section of the appropriate vessel and incubated in a buffer solution for a fixed time. In one such assay, a device, for example, is placed in a section of porcine ureter, which is hydrated in a Phosphate Buffered Saline buffer. The ureter is incubated in a closed container for a fixed time, for example 24 hrs at 37 deg. C. […] The amount of bioactive present in the ureter and in the device is determined using, for example, an appropriate HPLC method. […]
A 7 cm section of each of the samples of tubing prepared as described in Example 1 is inserted into 9 cm of porcine ureter and incubated for approximately 18 hours at 37° C. in a screw capped glass vial hydrated with 0.25 ml of PBS (pH=7.4). […] The amount of doxazosin mesylate present in the tubing and in the ureter is determined as described in example 3.
Each of the samples from Example 2 is tested to determine the amount of doxazosin mesylate delivered to the ureter tissue. Doxazosin mesylate is extracted from each tube and ureter and the percentage that is delivered to each ureter is determined as follows. […] The amount of doxazosin mesylate in each of the ureter and the tubing is measured using HPLC.

Molecules are shown by their SMILES.

In the case of `C[S+](C)[O-]` [DMSO, dimethyl sulfoxide], the “percentage of doxazosin mesylate present in the ureter (amount delivered to ureter tissue)” value is reported as “increase the amount of doxazosin mesylate delivered”.

As to `CC(=O)OCC(COC(C)=O)OC(C)=O` [triacetin], the “percentage of doxazosin mesylate present in the ureter (amount delivered to ureter tissue)” value is “increase the amount of doxazosin mesylate delivered”.
